Data taken from the NIST ThermoML archive (doi:10.1021/je025625m).

Experiment: excess molar enthalpy (molar enthalpy of mixing); xn = mol fraction of the nth substance listed
Conditions: 298.15 K, 101 kPa, Liquid

CCCCCCCl [1-chlorohexane] + c1ccccc1
Conditions	excess molar enthalpy [kJ/mol]
x2 = 0.0723	0.0061
x2 = 0.0744	0.0071
x2 = 0.0805	0.0061
x2 = 0.0888	0.007
x2 = 0.1407	0.013
x2 = 0.1427	0.0147
x2 = 0.1437	0.0147
x2 = 0.2125	0.0225
x2 = 0.2862	0.0331
x2 = 0.3323	0.0415
x2 = 0.394	0.0531
x2 = 0.4431	0.0652
x2 = 0.5015	0.0789
x2 = 0.5375	0.0869
x2 = 0.541	0.0869
x2 = 0.5524	0.0911
x2 = 0.582	0.0959
x2 = 0.6153	0.102
x2 = 0.6575	0.107
x2 = 0.7164	0.111
x2 = 0.7288	0.112
x2 = 0.7352	0.11
x2 = 0.7928	0.105
x2 = 0.8215	0.101
x2 = 0.8484	0.0939
x2 = 0.8629	0.0864
x2 = 0.894	0.0727
x2 = 0.9274	0.0554
x2 = 0.9535	0.0384
